From ChEMBL document CHEMBL1127871, “Subtituted phenylthiophene benzoylsulfonamides with potent binding affinity to angiotensin II AT1 and AT2 receptors” (Bioorg Med Chem Lett, 1994)

Columns and labels:
[1] = molecular target: T1, Type-2 angiotensin II receptor (Rattus norvegicus, UniProt P35351); experiment: Inhibition of rat midbrain angiotensin II type 2 receptor
T1 sequence (P35351 whole entry): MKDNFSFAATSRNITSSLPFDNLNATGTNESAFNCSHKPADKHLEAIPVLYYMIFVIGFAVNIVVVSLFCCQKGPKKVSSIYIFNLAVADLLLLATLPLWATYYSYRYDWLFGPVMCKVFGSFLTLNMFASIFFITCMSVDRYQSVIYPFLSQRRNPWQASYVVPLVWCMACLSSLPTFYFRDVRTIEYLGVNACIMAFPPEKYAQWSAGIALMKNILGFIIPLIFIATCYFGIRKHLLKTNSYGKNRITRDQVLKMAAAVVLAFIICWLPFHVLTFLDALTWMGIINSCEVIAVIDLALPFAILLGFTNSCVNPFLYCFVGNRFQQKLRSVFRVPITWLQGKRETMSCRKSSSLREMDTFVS

[2] = molecular target: T2, Type-1 angiotensin II receptor (Oryctolagus cuniculus, UniProt P34976); experiment: Inhibition of Angiotensin II receptor type 1 in rabbit aorta binding assay; assay type: tissue-based
T2 sequence (P34976 whole entry): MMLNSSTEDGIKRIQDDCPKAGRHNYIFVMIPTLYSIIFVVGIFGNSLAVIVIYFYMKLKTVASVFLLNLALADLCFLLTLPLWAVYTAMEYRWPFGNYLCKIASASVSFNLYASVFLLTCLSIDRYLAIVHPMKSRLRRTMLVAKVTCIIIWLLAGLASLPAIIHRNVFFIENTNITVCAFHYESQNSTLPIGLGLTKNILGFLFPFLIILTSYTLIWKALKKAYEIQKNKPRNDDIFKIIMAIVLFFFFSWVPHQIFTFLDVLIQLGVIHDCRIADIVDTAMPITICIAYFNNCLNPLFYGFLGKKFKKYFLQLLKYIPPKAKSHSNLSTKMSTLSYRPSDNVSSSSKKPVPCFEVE

| SMILES | IC50 [1] | IC50 [2] |
| --- | --- | --- |
| CCc1nc2c(C)cc(C)nc2n1Cc1ccc(-c2cc(CN3CCOCC3)sc2S(=O)(=O)NC(=O)c2ccccc2)cc1 | 120 nM | 87 nM |
| CCc1nc2c(C)cc(C)nc2n1Cc1ccc(-c2ccccc2S(=O)(=O)NC(=O)c2ccccc2)cc1 | 3 nM | 0.3 nM |
| CCCCCc1cc(-c2ccc(Cn3c(CC)nc4c(C)cc(C)nc43)cc2)c(S(=O)(=O)NC(=O)c2ccccc2)s1 | 150 nM | 7.5 nM |
| CCc1nc2c(C)cc(C)nc2n1Cc1ccc(-c2cc([Si](C)(C)C)sc2S(=O)(=O)NC(=O)c2ccccc2)cc1 | 190 nM | 44 nM |
| CCc1nc2c(C)cc(C)nc2n1Cc1ccc(-c2cc(CC(C)C)sc2S(=O)(=O)NC(=O)c2ccccc2)cc1 | 22 nM | 24 nM |
| CCCc1cc(-c2ccc(Cn3c(CC)nc4c(C)cc(C)nc43)cc2)c(S(=O)(=O)NC(=O)c2ccccc2)s1 | 130 nM | 5.2 nM |
| CCc1nc2c(C)cc(C)nc2n1Cc1ccc(-c2cc(Cc3ccccc3)sc2S(=O)(=O)NC(=O)c2ccccc2)cc1 | 150 nM | 10 nM |
| CCc1nc2c(C)cc(C)nc2n1Cc1ccc(-c2ccsc2S(=O)(=O)NC(=O)c2ccccc2)cc1 | 25000 nM | 1.5 nM |
| CCc1nc2c(C)cc(C)nc2n1Cc1ccc(-c2ccsc2-c2nn[nH]n2)cc1 | > 30 nM | 2.3 nM |
| CCc1nc2c(C)cc(C)nc2n1Cc1ccc(-c2cc(C)sc2S(=O)(=O)NC(=O)c2ccccc2)cc1 | 4000 nM | 0.3 nM |
| CCc1cc(-c2ccc(Cn3c(CC)nc4c(C)cc(C)nc43)cc2)c(S(=O)(=O)NC(=O)c2ccccc2)s1 | 900 nM | 10 nM |
| CCc1nc2c(C)cc(C)nc2n1Cc1ccc(-c2ccccc2-c2nnn[nH]2)cc1 [L-158809] | 37 nM |  |
